Patent US12702307B2, “Non-invasive stress imaging methods of diagnosing peripheral arterial disease via dynamic pet” (Jubilant DraxImage inc., priority 2021, dated 2026)

Tests used:
[1] = tested on: calf muscles; experiment: Rb PET/CT calf muscle perfusion at rest and reactive hyperemia in controls and PAD patients; type: in vivo, human
Experimental: Methods: Rb PET/CT imaging (Vision600, Siemens) was performed in healthy controls (n=6) and PAD patients (n=6). Rb (20-30 mCi) was delivered using a constant activity infusion over […], with PET images acquired by shuttling scanner from either heart (Protocol 1) or abdomen (Protocol 2) to feet using 8-11 passes over 7 minutes. Abdominal protocol was repeated 30 seconds after RH induced by 5 minutes bilateral thigh cuff occlusion. Mean Rb standardized uptake values (SUV), excluding the input function, were determined for calf muscles segmented in both legs using hybrid CT images including: gastrocnemius (GC), soleus (SOL), tibialis anterior (TA), extensor digitorum longus (EDL), and peroneus (PER) (FIG. 10A).

[2] = tested on: occluded tissue (lower extremity); experiment: Dynamic Rb-82 PET, tracer flux K1 in lower extremity, animal study; type: in vivo, porcine pigs; conditions: occluded tissue in comparison to non-occluded tissue; 518±37 MBq Rb-82
Experimental: CT scan was performed on the subject for standard attenuation correction, and multi-energy low dose contrast CT imaging was performed to define the lower extremity vasculature and attenuation correction was performed using virtual non-contrast images; 518±37 MBq Rb-82 was administered to the subject using automated generation and infusion system; single bed PET acquisition of the heart for about 1-10 minutes, was performed; single bed PET acquisition of the leg for about 1-10 minutes was performed; single bed centered PET acquisition at abdominal aorta of the subject for about 1-3 minutes was performed; continuous bed motion PET scan of the subject between abdominal aorta and legs was performed; tracer flux (K1) into the tissue or region of interest is calculated as volume per unit time per unit volume of tissue. […] It was validated by injecting microspheres over 30 seconds during the PET imaging at either rest or stress conditions for each animal and blood flow was measured in both gastrocnemius and soleus muscles. FIG. 4 represents the sample animal K1 parametric image with AA as the input function. FIG. 6 represents the muscle volumes in animal studies.

[3] = tested on: calf muscles, hindlimb ischemia (HLI); experiment: Rb-82 PET/CT of calf muscles in rabbit hindlimb ischemia at rest and cuff-induced hyperemia; type: in vivo, rabbits; conditions: for SMP SUV: cuff-induced hyperemia (CIH); for Mean Rb-82 SUV: rest, 1.5 mCi
Experimental: Methods: Hindlimb ischemia (HLI) was created in rabbits (n=8) by right femoral ligations and Rb-82 PET/CT imaging performed on digital PET scanner (Vision600, Siemens) at either 2 or 4 weeks post-ligation. Rabbits were injected with Rb-82 (1.5 mCi) with constant activity infusion over 30 seconds at rest and 30 seconds following hyperemia induced by 3 minutes cuff occlusion of thighs bilaterally. PET images were acquired with shuttling scanner from heart to feet using 8 passes over 7 minutes. Summed images were created excluding the first 90 seconds post injection. Calf muscles were segmented based on CT images. Mean Rb-82 standardized uptake values (SUVs) were calculated for calf muscles—gastrocnemius (GC), plantaris (PLA), soleus (SOL), tibialis anterior (TA), extensor digitorum longus (EDL), peroneus (PER)—for both ischemic (I) and non-ischemic (NI) limbs. CT angiography was performed, and tissues analyzed for fiber type and capillary density.

[4] = tested on: occluded tissue / low limb; experiment: Dynamic Rb-82 PET, tracer flux K1 in lower extremity, human study; type: in vivo; conditions: for average K1 value: diabetic subject, 3D region of interest on the low limb, parametric imaging
Experimental: CT scan was performed on the subject for standard attenuation correction, multi-energy low dose contrast CT imaging was performed to define lower extremity vasculature and attenuation correction was performed using virtual non-contrast images; 518±37 MBq Rb-82 is administered to the subject using automated generation and infusion system agent; single bed PET acquisition of the heart for about 2-7 minutes is performed; single bed centered PET acquisition at abdominal aorta of the subject for about 1-3 minutes is performed; continuous bed motion PET scan of the subject between abdominal aorta and legs is performed; input function was calculated from abdominal artery; Tracer flux (K1) into the tissue or region of interest is calculated as volume per unit time per unit volume of tissue. […] FIG. 5 represents the image acquisition protocol during human study. FIG. 7 represents the muscle volumes in human studies.

| Compound | Mean Rb SUV ([1]; reactive hyperemia (RH), PAD patients, gastrocnemius (GC)) | Mean Rb SUV ([1]; reactive hyperemia (RH), PAD patients, soleus (SOL)) | Mean Rb SUV ([1]; reactive hyperemia (RH), controls, gastrocnemius (GC)) | Mean Rb SUV ([1]; reactive hyperemia (RH), controls, soleus (SOL)) | Mean Rb SUV ([1]; rest, PAD subjects, gastrocnemius (GC)) | Mean Rb SUV ([1]; rest, PAD subjects, soleus (SOL)) | Mean Rb SUV ([1]; rest, controls, gastrocnemius (GC)) | Mean Rb SUV ([1]; rest, controls, soleus (SOL)) | Average K1 (tracer flux) [2] | SMP SUV ([3]; ischemic (I) limb) | SMP SUV ([3]; non-ischemic (NI) limb) | Mean Rb-82 SUV ([3]; ischemic (I) limb across calf muscles) | Mean Rb-82 SUV ([3]; non-ischemic (NI) limb across calf muscles) | average K1 value [4] | Average K1 (tracer flux) ([4]; occluded tissue in comparison to non-occluded tissue, 518±37 MBq Rb-82) |
| --- | --- | --- | --- | --- | --- | --- | --- | --- | --- | --- | --- | --- | --- | --- | --- |
| Rb-82 chloride | 0.96±0.58 | 1.08±0.76 | 0.38±0.18 | 0.34±0.14 | 0.50±0.11 | 0.66±0.20 | 0.44±0.11 | 0.52±0.12 | less than 0.05 ml/min/cm^3 | 1.02±0.32 | 1.14±0.34 | 0.55±0.18 | 0.51±0.16 | 0.032 | less than 0.05 ml/min/cm^3 |
| [15OH2] [^15O-water] | – | – | – | – | – | – | – | – | – | – | – | – | – | 0.039 | – |
